Laboratory results as given in PubChem BioAssay AID1358 (Sanford-Burnham Center for Chemical Genomics, 2008).
Activity calls are given as the source filed them.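 The calls were made as follows: active = no phosphorylated p38 MAPK band on western blot after an ER stress trigger, matching the untreated control; inactive = the rest.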

System: CSM14.1 cells, thapsigargin, phospho-p38 Western blot
Experiment: inhibition of thapsigargin-induced p38 phosphorylation, late-stage follow-up, mechanism study for ER stress cell death project, CSM14.1 cells, Western blot (AID 1358)

Compound | outcome
O=C1CC(c2ccccc2)CC2=C1C(c1c(F)cccc1Cl)Nc1ccccc1N2 (stereo unspecified) | active
COc1ccc(C2CC(=O)C3=C(C2)Nc2ccccc2NC3c2cc(C)ccc2C)cc1 (stereo unspecified) | active
COc1ccc(C2CC(=O)C3=C(C2)Nc2ccccc2NC3c2ccccc2C(F)(F)F)cc1OC (stereo unspecified) | active
CC1(C)CC(=O)C2=C(C1)Nc1ccccc1NC2c1ccc(-c2ccccc2)cc1 (stereo unspecified) | active
COc1ccc(C2CC(=O)C3=C(C2)Nc2ccccc2NC3c2cccc(Oc3ccccc3)c2)cc1OC (stereo unspecified) | active
CSc1ccc(C2Nc3ccccc3NC3=C2C(=O)CC(c2ccccc2)C3)cc1 (stereo unspecified) | active
CCOc1cccc(C2Nc3ccccc3NC3=C2C(=O)CC(c2ccc(OC)cc2)C3)c1 (stereo unspecified) | active
CCCOc1ccc(C2Nc3ccccc3NC3=C2C(=O)CC(c2ccc(OC)c(OC)c2)C3)cc1 (stereo unspecified) | active
COc1ccc(C2CC(=O)C3=C(C2)Nc2ccccc2NC3c2cccc(Br)c2)cc1OC (stereo unspecified) | active
CCOc1cc(C2Nc3ccccc3NC3=C2C(=O)CC(c2ccc(OC)cc2)C3)cc(Cl)c1O (stereo unspecified) | active
COc1ccc(C2CC(=O)C3=C(C2)Nc2ccccc2NC3c2cccc(C(F)(F)F)c2)cc1OC (stereo unspecified) | active
